# Source: patent US9446017B2, “Compositions and methods for treating herpes simplex virus” (Augusta University Research Institute, Inc., priority 2005, dated 2016)
# Several values for one entry are separate records, joined by “and”; a condition that tells them apart may be missing. Equal values may be shown once. Entries after “also recorded” stand apart in the source; their conditions may differ.
# Key:
# HSV1 [1] = experiment: Viral titer study using plaque assay, HSV virions pre-treated with polyphenol, Vero cells; type: cell-based
# Experimental: Vero cells were plated on 6 well plates and allowed to reach confluence. HSV virions were treated for 1 hour with the respective concentration of polyphenols (12.5, 25, 50, 75, 100 μM) prior to cell infection. Cells were then infected with HSV and allowed to adsorb for 1 hour. Viruses that had not been absorbed were then aspirated. Plates were then overlaid with a nutrient medium-containing agar. Plaques were visualized by staining cells with crystal violet, observed, and counted within 50 hours.
# Viral titer was determined to study the effect of 50 μM of EGCG and EGCG-ester on the viral particle production by using plaque assay. Serial dilutions of viral lysates were performed from 10^−1 to 10^−7 and cells were then infected respectively with the dilutions.
# In order to obtain the minimum inhibitory concentration of EGCG-ester on HSV1, different concentrations (12.5, 25, 50, 75 μM) of EGCG-ester were used at lower dilution of viral lysate (10^−1 and 10^−2).
# Vero cells [2] = experiment: Cell viability assay, trypan blue and hemocytometer direct cell count; details: for Dead cells / Live cells: FIG. 1 axis Vero cells/ml
# Experimental: Vero cells were plated in 6 well plates and after a period of 24 hours different concentrations of EGCG or EGCG-ester (12.5, 25, 50, 75, 100 μM) were added to each well, respectively. After one hour, the polyphenols were aspirated and the cells were washed with PBS. DMEM media was put back into each well and cells were incubated for 24 hrs. Cells were then counted using a hemocytometer and trypan blue which stains the dead cells blue and leaves the live cells white.
# The cell viability was determined by using trypan blue and hemacytometer direct cell count to detect the effect of EGCG-ester on Vero cells.
# Vero cells [3] = experiment: Cell proliferation assay (MTS tetrazolium, absorbance 490 nm); type: cell-based, green monkey; details: for absorbance at 490 nm (single reading): 1 hour, read 24 hours later; for inhibition of cell proliferation: up to 75 μM, compared to controls
# Experimental: A cell proliferation kit (G5421, Promega Corp.) was used. This is a colorimetric method for determining cell proliferation. This kit contains a tetrazolium compound and an electron-coupling reagent (phenazine methosulfate). Only live cells will be able to bioreduce the tetrazolium compound into soluble formazan. Thus, the amount of formazan formed and measured at 490 nm absorbance is directly proportional to the number of live cells. Cells were plated into 96 well plates and after 24 hrs they were treated with different concentrations (12.5, 25, 50, 75, 100 μM) of polyphenols and allowed to adsorb for 1 hour. Polyphenols were then aspirated and 100 μL of fresh DMEM was added back to each well. 24 hours later, 20 μL of the MTS reagent was added to every 100 μL of cells in media. The plates were incubated at 37° C. and 5% CO2 for 4 hours, and then the absorbance was read using a plate reader. […] In this study, cell proliferation was examined under the same conditions as described before. Each experiment was assayed in triplicates, and absorbance of this colorimetric assay was recorded at 490 nm using a 96 well ELISA plate reader.
# Vero cells [4] = experiment: Cytotoxicity assay, morphological and proliferation changes by microscope; type: cell-based, green monkey; details: for change of cell morphology: 12.5 to 75 μM; for maximum nontoxic concentration: Vero cells; for effect on the cells: higher concentration
# Experimental: Cells were studied for morphological and proliferation changes 48 hrs later using an ACCU-Scope 3002 microscope with a camera attached. […] Cells were studied for morphological and proliferation changes 24 hrs later using an ACCU-Scope 3002 microscope with a camera attached. In order to determine the proper concentrations of EGCG and EGCG-ester to be used for treating HSV1, the effect of polyphenols on the cells were studied. […] In this experiment, the polyphenols were added at the same time as the cells were plated and were not removed subsequently. The effect of different concentrations of EGCG-ester on Vero cells was also observed at 24 hrs. […] EGCG-ester was then aspired, and cells were observed 24 hours later.
# HSV1 [5] = experiment: Real time PCR of HSV1 glycoprotein D; type: cell-based; details: for fold difference in the amount of glycoprotein D DNA vs HSV1/Vero: Ct based; for inhibits HSV1: FIG. 10
# Experimental: A set of primer that primes HSV1 glycoprotein D was designed for use in Real time polymerase chain reaction. This set includes 5″-[…]-3′ (SEQ ID NO:20) for the forward and 5′[…]-3′ (SEQ ID NO:21) for the reverse. Each tube (except the negative controls-no DNA) contained […] of Fast SYBR green master mix (ABI Fast SYBR Green Master Mix), 1 μL of forward primer, 1 μL of reverse primer, […] of genomic DNA and 6 μL of […]. The samples were run on an ABI StepOnePlus Real-Time PCR System. The Run methods were: a holding stage at 95° C. for 5 minutes followed by 40 cycles of denaturation at 95° C. for 1 minute, annealing at 60° C. for 1 minute and extension at 72° C. for 30 seconds. Next, the melting curve stage included 95° C. for 15 seconds, followed by 60° C. for 1 minute, and 95° C. for 15 seconds.
# Cells were grown on 60 mm plates and allowed to reach confluency. Cells were then infected with HSV I treated and HSV1 non-treated for 1 hour at 37° C. and 5% CO2. After absorption time, cells were washed with PBS and media was added to the plates. After 12 hours, cells were trypsinized and DNA was extracted using the DNeasy Blood and Tissue Handbook (Qiagen 2006). DNA concentration was then measured by using a Nanodrop Specrophotometer.
# The process of real time PCR works by collecting fluorescence data at the end of each cycle of the reaction. The SYBR green dye used in the experiment binds to the double stranded PCR product causing the PCR product to fluoresce. As the reaction continues the instrument recalls the threshold for each sample. The threshold cycle (Ct) is the critical cycle at which the first significance increase in fluorescence is detected. Once the PCR cycles ended, the data were collected and the Ct values for each of the samples were analyzed and the relative quantity (RQ) of fluorescence was reported. The standard for comparing Ct values is that a difference in one Ct is equivalent to a two-fold difference in the amount of DNA. […] of DNA was used for all samples; cells only, HSV1/Vero, and EGCG-ester HSV1/Vero.
# [6] = 100 μM, Vero cells, replicate counts
Structure (SMILES),"absorbance at 490 nm, Mean (Vero cells [3]; 12.5 μM)",absorbance at 490 nm (single reading) (Vero cells [3]; 12.5 μM),"absorbance at 490 nm, Mean (Vero cells [3]; 25 μM)",absorbance at 490 nm (single reading) (Vero cells [3]; 25 μM),"absorbance at 490 nm, Mean (Vero cells [3]; 50 μM)",absorbance at 490 nm (single reading) (Vero cells [3]; 50 μM),"absorbance at 490 nm, Mean (Vero cells [3]; 75 μM)",absorbance at 490 nm (single reading) (Vero cells [3]; 75 μM),"absorbance at 490 nm, Mean (Vero cells [3]; 100 μM)",absorbance at 490 nm (single reading) (Vero cells [3]; 100 μM),inhibition of cell proliferation (Vero cells [3]),change of cell morphology (Vero cells [4]),maximum nontoxic concentration (Vero cells [4]) [µM],effect on the cells (Vero cells [4]),fold difference in the amount of glycoprotein D DNA vs HSV1/Vero (HSV1 [5]) [fold],inhibits HSV1 (HSV1 [5]) [%],other results
"O=C(O[C@@H]1Cc2c(O)cc(O)cc2O[C@@H]1c1cc(O)c(O)c(O)c1)c1cc(O)c(O)c(O)c1 [EGCG, (−)-epigallocatechin-3-gallate, reference compound]",0.607,0.615 and 0.606 and 0.601,0.621,0.628 and 0.620 and 0.616,0.603,0.632 and 0.587 and 0.589,0.647,0.645 and 0.652,0.698,0.688 and 0.677 and 0.730,not inhibiting cell proliferation to a great extent,do not induce a change cell morphology,75,not significantly affected,32,95,"fold decrease in titer / plaque formation vs HSV1/Vero (HSV1 [1]; 50 μM): 10 fold; viral titer (HSV1 [1]; HSV1 treated with 50 μM polyphenol before infection of Vero cells): 1×10^5 PFU/ml; Cells (Vero cells [2]; [6]): 167 and 292 and 347; Cells dead (Vero cells [2]; [6]): 119 and 134 and 184; morphological changes (Vero cells [4]; 12.5-100 μM, added when cells were plated, not removed, observed at 48 hrs): no morphological changes"
CCCCCCCCCCCCCCCC(=O)Oc1c(O)cc([C@H]2Oc3cc(O)cc(O)c3C[C@H]2OC(=O)c2cc(O)c(O)c(O)c2)cc1O [EGCG-ester],0.627,0.642 and 0.647 and 0.574,0.647,0.668 and 0.651 and 0.621,0.676,0.663 and 0.698 and 0.667,0.653,0.582 and 0.689 and 0.687,0.717,0.691 and 0.741 and 0.719,not inhibiting cell proliferation to a great extent,do not induce a change cell morphology,75,not significantly affected,256,99.46,"reduction of HSV1 ability to form plaques (HSV1 [1]; 50 μM EGCG-ester and above, viral lysate dilution 10^−1 and 10^−2): > 99%; plaque (PFU) formation (HSV1 [1]; 50 μM and above): no plaques observed; also recorded: completely inhibits PFU formation; plaque formation (HSV1 [1]; 50 μM, viral lysate dilutions 10^−1 to 10^−7): no plaque formation; % of death (Vero cells [2]; 12.5 μM): 10%; Dead cells (Vero cells [2]; 12.5 μM): 2.7E+06; Live cells (Vero cells [2]; 12.5 μM): 2.56E+07; % of death (Vero cells [2]; 25 μM): 10%; Dead cells (Vero cells [2]; 25 μM): 2.95E+06; Live cells (Vero cells [2]; 25 μM): 2.72E+07; % of death (Vero cells [2]; 50 μM): 10%; Dead cells (Vero cells [2]; 50 μM): 2.90E+06; Live cells (Vero cells [2]; 50 μM): 2.89E+07; % of death (Vero cells [2]; 75 μM): 10%; Dead cells (Vero cells [2]; 75 μM): 1.70E+06; Live cells (Vero cells [2]; 75 μM): 2.71E+07; maximum nontoxic concentration (Vero cells [2]; Vero cells): 75 µM; percentage of cell death (Vero cells [2]; increasing concentration, compared to control): not changed; also recorded: did not change much; cell morphology (Vero cells [4]; 100 μM, added when cells were plated, not removed, 48 hrs): affected to a certain extent; cell morphology (Vero cells [4]; 12.5-100 μM for 1 hour on cells plated 24 hours, observed 24 hours later): not greatly affected"
